From the supplement of paper PMC10307832

Assays:
Test in all cases: relative viability (nuclei count vs DMSO), 5 days (fraction); higher = more cells survive
[1] = compound: CCCS(=O)(=O)Nc1ccc(F)c(C(=O)c2c[nH]c3ncc(-c4ccc(Cl)cc4)cc23)c1F [Vemurafenib]
Procedure, shortened: (§1)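 Acceptance criteria were a control CV below 25% and at least one doubling per plate. Lung cancer cell lines in 1536-well plates got five library-drug doses (not always all listed) √10 apart by pinning and were left 5 days with no medium change. Viability divides treated-well nuclei by vehicle-well nuclei and is the median across plates. Nuclei were counted by MetaXpress from 4× Hoechst images.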

[2] = compound: Cc1nc(NC(=O)N2CCC[C@H]2C(N)=O)sc1-c1ccnc(C(C)(C)C(F)(F)F)c1 [Alpelisib]
Procedure, shortened: as §1

[3] = compound: COc1cccc2cc(-c3nc([C@H]4CC[C@H](C(=O)O)CC4)n4ncnc(N)c34)[nH]c12 [OSI-027]
Procedure, shortened: as §1

[4] = compound: CCCS(=O)(=O)Nc1ccc(F)c(C(=O)c2c[nH]c3ncc(-c4ccc(Cl)cc4)cc23)c1F [Vemurafenib] + CS(=O)(=O)CCNCc1ccc(-c2ccc3ncnc(Nc4ccc(OCc5cccc(F)c5)c(Cl)c4)c3c2)o1 [Lapatinib] (partner 2 µM)
Procedure, shortened: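 Relative viability was taken as the ratio of nuclei in treated wells to nuclei in vehicle wells. Lung cancer cell lines in 1536-well plates received compounds by pin tool one day after seeding, either one drug alone or a fixed anchor-drug dose plus five library-drug doses (not always all listed) in √10 steps. Nuclei were counted on 4× images after 5 days of treatment, and values are medians of duplicate plates.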

Cell Line	relative viability ([1]; 0.03162 µM)	relative viability ([1]; 0.1 µM)	relative viability ([1]; 0.3162 µM)	relative viability ([1]; 1 µM)	relative viability ([2]; 0.04 µM)	relative viability ([2]; 0.1265 µM)	relative viability ([2]; 0.4 µM)	relative viability ([2]; 1.265 µM)	relative viability ([2]; 4 µM)	relative viability ([3]; 0.01 µM)	relative viability ([3]; 0.03162 µM)	relative viability ([3]; 0.1 µM)	relative viability ([3]; 0.3162 µM)	relative viability ([3]; 0.5 µM, anchor plate)	relative viability ([3]; 1 µM)	relative viability ([2]; 2 µM, anchor plate)	relative viability ([4]; first compound 0.03162 µM)	relative viability ([4]; first compound 0.1 µM)	relative viability ([4]; first compound 0.3162 µM)	relative viability ([4]; first compound 1 µM)
NCI-H2342	0.938	0.94	0.86	0.992	0.927	1.05	0.926	0.79	0.675	0.975	0.949	0.966	0.843	0.622	0.649					
SW 1573	0.916	0.927	0.957	0.941	0.98	0.916	0.94	0.704	0.649	0.951	0.892	0.938	0.878	0.671	0.655	0.733	1.01	0.916	1.02	0.978
NCI-H1792	0.776	0.904	0.624	0.914	0.89	0.724	0.819	0.636	0.383	0.658	0.841	0.843	0.709	0.784	0.374	0.728	0.819	0.886	0.651	0.959
LOU-NH91	0.954	0.724		1.07	0.961	0.806	0.859	0.753	0.604	0.903	0.967	0.786	0.776	0.72	0.591	0.732	0.683	0.78		0.781
LC-2-ad	0.923	0.892	0.738	0.956	0.966	0.905	1.09	0.685	0.672	1.07	1.01	0.946	1.02	0.875	0.779	0.868	0.881	0.928	0.778	0.866
HOP-62	0.961	1.05	0.858	0.875	1.04	1.06	1.1	0.863	0.955	1	1.07	1	0.957	0.831	0.75	0.974	0.915	1.14	0.906	0.796
NCI-H650	0.882	0.965	0.413	0.628	0.877	0.825	0.96	0.752	0.738	0.862	0.999	0.732	0.701	0.532	0.403	1.14	0.838	1.15	0.313	0.681
NCI-H1651	0.919	0.998	0.887	0.966	0.891	1.02	1.01	0.844	0.841	0.96	0.828	0.977	0.901	0.71	0.723	0.973	0.853	0.772	0.756	0.824
CAL-12T	0.961	0.892	1.01	0.935	0.999	0.989	1.09	0.963	0.955	0.99	0.988	0.944	0.857	0.702	0.528	1.14	0.63			0.618
LK-2	0.944	0.937	1.05	0.66	0.885	0.868	0.685	0.563	0.599	1.02	0.914	0.703	0.515	0.221	0.191	1.1	0.674	0.867	0.835	0.505
EKVX	0.935		1.03	0.988	0.927	0.921	1.12	0.821	0.614	0.984	0.914	0.93	0.889	0.693	0.582	0.893	0.189		0.253	0.208
EMC-BAC-2	0.893	0.977	0.624	0.826	0.95	0.821	0.981	0.672	0.604	0.938	1.02	0.824	0.644	0.39	0.474	0.751	0.874	0.916	0.812	0.882
NCI-H520	0.944	0.944	1.08	0.924	0.891	0.935	1.11	0.725	0.503	1.15	0.972	0.73	0.628	0.261	0.34	0.945	0.759	0.839	0.859	0.751
NCI-H322M	0.883		1.11	0.906	0.879	0.961	0.918	0.698	0.682	0.922	0.887	0.843	0.72	0.578	0.527	0.786	0.583		0.801	0.491
COR-L 105	0.772		0.908	1.03	0.931	1	1.21	0.876	0.853	0.907	0.945	0.814	0.835	0.775	0.762	1.03	0.348		0.32	0.373
NCI-H2170	0.92	0.674	0.936	0.964	0.946	0.868	1.07	0.769	0.621	0.941	0.881	0.959	0.797	0.716	0.654	0.825	0.277	0.244	0.266	0.267
NCI-H358	0.865		1.12	1.11	0.873	0.889	0.95	0.586	0.493	1	0.842	1.03	1.01	0.79	0.538	0.88	0.408		0.505	0.407
